Target: hM3Dq (Homo sapiens, UniProt P20309, A239G/Y149C)
Experiment: Slice whole-cell recordings of hM3Dq-transduced MSNs
Format: cell-based, mice
Parameters: 2A-EYFP (C); host or cells: AAV8R12-transduced EYFP+ striatal MSNs in acute mouse brain slices
Details: AAV8R12-G88P3-HA-hM3Dq-2A-EYFP; CNO 10 μM; basal firing rate and resting membrane potential unaffected
Source text: Mice from different groups were anesthetized with […] isoflurane, and then decapitated. The brain was quickly extracted and placed in ice-cold N-methyl-D-glucamine (NMDG) cutting solution containing (in mM): 92 NMDG, 2.5 KCl, 25 NaHCO3, 1.25 NaH2PO4, 4.5 D-Glucose, 20 HEPES, 5 L-ascorbic acid, 3 Na-pyruvate, 2 Thiourea, 10 MgSO4, 0.5 CaCl2). The pH was adjusted to 7.2±0.1 using HCl and the osmolarity was adjusted to 305±5 mosmol/L using NMDG. The solution was bubbled with 95% O2/5% CO2 prior to use. Coronal striatum slices were cut in 250-[…]m thickness with a vibratome slicer (Leica, VT1200 S), and then incubated in artificial cerebrospinal fluid (aCSF) saturated with 95% O2/5% CO2 for at least 45 min at 37° C. before recording. The aCSF contains (in mM) 125 NaCl, 1.25 KCl, 25 NaHCO3, 1.25 KH2PO4, 25 D-Glucose, 2 CaCl2) and 1 MgCl2, supplemented with 2 mM Na-pyruvate, 3 mM Myo-inositol and 0.4 mM L-ascorbic acid.
The acute striatum slice was transferred to the recording chamber with a constant perfusion of oxygenized aCSF at the rate of 3 ml/min. Neurons were visualized using an upright microscope (Olympus, BX-51) with a 40×water immersion objective at room temperature (˜25° C.). […] Neurons were quickly visualized under fluorescence microscope and then patch clamp were achieved under infrared light illumination and CCD camera. […]

Sequence of hM3Dq (P20309 whole entry Y149C/A239G): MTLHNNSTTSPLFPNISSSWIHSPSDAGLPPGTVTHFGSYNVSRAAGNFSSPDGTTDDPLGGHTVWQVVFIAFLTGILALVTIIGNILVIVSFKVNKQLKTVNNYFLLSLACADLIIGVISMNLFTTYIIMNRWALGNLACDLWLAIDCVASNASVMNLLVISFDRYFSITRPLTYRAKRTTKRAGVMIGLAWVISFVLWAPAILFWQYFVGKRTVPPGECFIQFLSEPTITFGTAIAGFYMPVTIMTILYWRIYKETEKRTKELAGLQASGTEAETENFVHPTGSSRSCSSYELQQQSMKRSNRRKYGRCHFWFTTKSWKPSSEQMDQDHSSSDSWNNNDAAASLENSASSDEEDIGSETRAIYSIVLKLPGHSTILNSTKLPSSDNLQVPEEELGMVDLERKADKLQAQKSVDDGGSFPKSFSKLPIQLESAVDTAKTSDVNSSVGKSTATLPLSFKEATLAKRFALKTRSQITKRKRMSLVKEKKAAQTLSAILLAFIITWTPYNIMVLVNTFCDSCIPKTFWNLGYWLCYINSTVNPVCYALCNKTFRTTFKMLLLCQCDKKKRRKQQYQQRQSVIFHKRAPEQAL

For `C[N+]1([O-])CCN(C2=Nc3cc(Cl)ccc3Nc3ccccc32)CC1` [CNO, clozapine N-oxide], the “excitability of transduced MSNs” value was “augmentation of excitability”.

From US20250381307A1, “RETRO-AAV AND USE IN TREATING NEURODEGENERATIVE DISEASES” (priority 2023, published 2025)
